Assay results taken from paper PMC6035881 (Antiviral Research, 2018).
“And” between values parts separate entries of the source, which are not always exact repeats. Equal entries are not always repeated.

Legend:
RVFV (MP-12 strain) [1] = assay: microbe, parasite or virus in culture; details: Rift Valley fever virus, Vero 76, read-out: EC90 (VYR)
RVFV (MP-12 strain) [2] = tested on: RVFV (MP-12 strain)
RVFV [3] = details: cited from earlier work
RVFV (strain ZH501) [4] = tested on: RVFV (strain ZH501); set-up: species or system Syrian golden hamsters; details: hamster, in vivo, ip
[5] = tested on: more than 20 different viruses across eight different virus families; details: read-out: in vitro antiviral potency EC50; cited from earlier work
in vitro = details: African green monkey
[6] = hamster, in vivo, ip; cited from earlier work
RVFV (strain ZH501) [7] = tested on: RVFV (strain ZH501); set-up: species or system Syrian golden hamsters; details: hamster, in vivo
RVFV (strain ZH501) [8] = tested on: RVFV (strain ZH501); set-up: species or system Syrian golden hamsters; details: hamster, in vivo; remark: listed apart in the source
RVFV (MP-12 strain) [9] = tested on: RVFV (MP-12 strain); remark: listed apart in the source
RVFV [10] = details: in vivo; cited from earlier work
RVFV (MP-12 strain) [11] = assay: microbe, parasite or virus in culture; details: Rift Valley fever virus, Vero 76, 120 h, read-out: EC50 (CPE reduction assay)
RVFV [12] = details: hamster, in vivo; cited from earlier work

Nc1ncnc2c([C@@H]3N[C@H](CO)[C@@H](O)[C@H]3O)c[nH]c12 [Galidesivir]
EC90 (RVFV (MP-12 strain) [1]): 37 µg/mL and 13.9 µM
SI (CC50/EC90) (RVFV (MP-12 strain) [2]): 7.6
EC50 (RVFV [3]): 41.6 µM
EC90 (RVFV [3]): 98 µM
levels of virus across all tissues and serum, day 2 p.i. (RVFV (strain ZH501) [4]): undetectable
EC50 [5]: < 50 µM
CC50 (in vitro): 280 µg/mL and 106 µM
maximum tolerated dose [6]: 200 mg/kg/day
animals surviving the lethal RVFV challenge (RVFV (strain ZH501) [7]): 70%
protection from mortality (RVFV (strain ZH501) [7]): up to 70%
RVFV in serum, spleen or brain on day 2 p.i. (RVFV (strain ZH501) [8]): undetectable
animals with detectable viral load in the liver on day 2 p.i. (RVFV (strain ZH501) [8]): only a single animal
SI (CC50/EC50) (RVFV (MP-12 strain) [9]): 5.2
protection in mouse model of RVFV infection (RVFV [10]): partial protection
EC50 (RVFV (MP-12 strain) [11]): 54 µg/mL and 20.4 µM

NC(=O)c1ncn([C@@H]2O[C@H](CO)[C@@H](O)[C@H]2O)n1 [Ribavirin, reference compound]
survival (RVFV (strain ZH501) [7]): 30%
virus in day 2 serum and tissue samples (RVFV (strain ZH501) [8]): devoid of virus

NC(=O)c1nc(F)c[nH]c1=O [favipiravir]
hamsters protected from lethal RVFV challenge (RVFV [12]): 70–80%
